In US9024005B2, “Nucleic acid complexes” (priority 2010, dated 2015):
Where two headings read alike, the source gives them in different places. {Fluorescein} = fluorescein label

Assays:
[1] = Weissig et al. (2006) J. Liposome Res. 16: 249-264, cited from earlier work
[2] = Weissig et al. 2001 S. T. P. Pharma Sci. 11: 91-96, Table I; cited from earlier work
[3] = Vesicle size distribution of hairpin TFD complexes (Malvern Nanosizer); format: physicochemical; settings: TFD complexes containing hairpin TFD SA SIG and the delivery compound
Description: To prepare delivery complexes, 10 mg of compound was suspend in 12.5 ml of 5 mM Hepes pH7.5 (final concentration 0.8 mg/ml) and dissolved by sonication (30×30 s on, 30 s off, on ice at 10μ). Absorbance of the resulting solution was measured at 327 nm to establish an accurate concentration. 12.5 μl delivery compound was mixed with 40 μl 10 μM TFD and 447.5 μl 5 mM Hepes (pH7.5) and sonicated in an ice bath using an MSE 150 Soniprep attached with a microprobe. Thirty cycles of sonication were performed with 30 s on (with 50% power, approximately 10μ) and 30 s off.
The size distributions of the formed vesicles were measured using a Malvern Nanosizer using standard methodology and are set out in Table 3 below: […]

TFD = assay: SYBR Green-DNA binding assay: binding of bolasomes to TFDs; settings: at the concentrations used for sC7 bolasomes; 2 μg TFD/ml
Description: To determine the proportion of TFDs being bound by the vesicles, a SYBR-green binding assay was used. TFD complexes were formed as described above in Hepes buffer with the adaptation that the buffer contained 5 μl of a 1 in 10 dilution of SYBR Green I dye (Invitrogen, 10,000× stock prepared in DMSO). Fluorescence was measured (λEX 497 nm, λEM 520 nm) to determine how much bolasome needed to be added to quench the binding of SYBR Green to the TFDs.
SYBR-Green I dye binds specifically to double-stranded DNA and, as it does, gives a strong fluorescent signal. By measuring the change in signal in the presence of different concentrations and types of bolasome, it was possible to calculate the minimum amount of bolasome needed to quench the SYBR-Green binding, due to the dye being excluded by the bolasomes. This was achieved by extrapolation from the linear portion of a titration curve that plotted amount of bolasome added to fluorescent signal. […] At these concentrations no quenching was seen by the monomeric C7.

EMRSA-15 = assay: Growth assay, TFDs delivered by antibacterial peptides; format: cell-based, S. aureus; settings: for bacterial growth of EMRSA-15, agent alone: TFD alone or Gramicidin alone; for bacterial growth of EMRSA-15, agent alone / bacterial growth of EMRSA-15, TFD with Gramicidin: LB media; for bacterial growth of EMRSA-15, TFD with Gramicidin: 1 μg DB-TFD with 150 ng/ul of Gramicidin; for growth of EMRSA-15, TFD mixed with Buforin II: 96 well plate in vitro assay
Description: The following antibacterial peptides were assayed for their ability to deliver TFDs to bacterial cells: Gramicidin, Polymyxin nonapeptide (both purchased from Sigma Aldrich) and Buforin II (Park et al. (2000) Proc. Natl. Acad. Sci. USA 97: 8245-8250). Typically 1 μg of the Sig DB-TFDs and SigScr DB-TFD as described in Example 1 were mixed with between 0.2 and 5 μg of Gramicidin in a total volume of 5 μl 50 mM NaCl. Of this, 1 μl was added to 200 μl of LB broth inoculated with a 1/100 dilution of a glycerol stock of EMRSA-15 at an original density of 0.3 OD (Absorbance at 600 nm) and aliquoted into a well of a 96 well plate. Experiments were performed in triplicate. The plates were incubated at 37° C. with shaking and absorbance readings (at […]) were taken using a plate reader.

[4] = tested on: Staphylococcus aureus EMRSA 16; assay: Tissue burden study, mouse sepsis model; format: in vivo; settings: Dwass-Steel-Chritchlow-Fligner, all pairwise comparisons
Description: Animals were treated in groups of since mice per treatment group, therefore forty eight animals were used in total for the study. Two 10 ml cultures of Staphylococcus aureus EMRSA 16 were prepared and placed on orbital shaker (220 rpm) overnight at 37° C. The following day, the Staphylococcus aureus EMRSA 16 cultures were removed from shaker, pelleted and washed twice before being resuspended in saline to an OD of 0.132 (1.5×10^8 cfu/ml). This stock solution of Staphylococcus aureus EMRSA 16 was then further diluted 1:1.5 in saline (1×10^8 cfu/ml) i.e. 2.0×10^7 bacteria per mouse.
All forty eight mice were then infected with 0.2 ml of the 1.0×10^8/ml suspension by intravenous injection into mouse tail vein. The number of Staphylococcus aureus EMRSA 16 bacteria per ml in the remainder of the suspensions after inoculation was also counted to confirm infection load.
Mice were treated 1, 9 and 17 hours post infection with either compound or vehicle, though vancomycin was only administered after 1 h.
After 25 hours post infection, all animals were weighed and then euthanised. […] Organ homogenates were quantitatively cultured onto CLED agar and incubated at 37° C. for up to 3 days and colonies counted. The data from the culture burdens was analysed by the Kruskal-Wallis test using Stats Direct. […]

MRSA strain, EMRSA-15 = assay: Fluorescence microscopy of uptake of labelled oligonucleotide; format: cell-based, S. aureus; settings: delivered in Buforin II-derivatised complexes formed with Compound 7; overnight growth
Description: Derivatised TFD complexes were formed as described, with the exception that the TFD was substituted with a fluorescently labelled oligonucleotide, Tef, that contained a fluorescein dye at the 5′ end. The sequence of the oligonucleotide was:
The derivatised complexes are added to 200 μl of LB broth inoculated with the MRSA strain, EMRSA-15, and grown overnight with shaking at 37° C. The following morning, cells were harvested by centrifugation and washed four times in an equal volume of PBS. A drop of the bacterial suspension was placed on a microscope slide and air dried. Cells were then heat-fixed by passing the slide through a Bunsen flame. The slide was then flooded with a solution of Loeffler's methylene blue (5 mg/ml methylene blue in 69:30:1 (v/v) solution of water:methanol: 1% (w/v) KOH) and allowed to stand for 1 min, after which the excess solution was washed off with water and the cells visualised using a Cairn CCD Fluorescence Microscope.

## Nc1c2c([n+](CCCCCCCCCC[n+]3c4c(c(N)c5ccccc53)CCCC4)c3ccccc13)CCCC2.[Cl-].[Cl-] [Compound 7, 10,10′-(decane-1,10-diyl)bis(9-amino-1,2,3,4-tetrahydroacridinium)dichloride]
[1]
  in vitro toxicity compared to dequalinium: less in vitro toxicity than dequalinium
[1]; listed as Compound 7 analogue
  in vitro toxicity compared to dequalinium: lower toxicity in vitro compared to dequalinium
[2]
  published size distribution of the vesicles: 169 nm
[3]
  Vesicle size distribution (nm): 139 +/− 35 nm
TFD
  quenching of SYBR-Green binding: no quenching

## Nc1c2c([n+](CCCCCCCCCCCC[n+]3c4c(c(N)c5ccccc53)CCCC4)c3ccccc13)CCCC2.[Cl-].[Cl-] [Compound 7_12, 10,10′-(dodecane-1,12-diyl)bis(9-amino-1,2,3,4-tetrahydroacridinium)dichloride]
[3]
  Vesicle size distribution (nm): 117 +/− 32 nm

## Cc1cc(N)c2ccccc2[n+]1CCCCCCCCCC[n+]1c(C)cc(N)c2ccccc21 [Dequalinium, reference compound]
[3]
  Vesicle size distribution (nm): 75-820 nm

## Gramicidin [reference compound]
EMRSA-15
  bacterial growth of EMRSA-15, agent alone: grew as well as the untreated control

## Sig TFD: transcription factor decoy with S. aureus Sig binding site (SEQ ID NO:9), given alone at 1 nM (TTATTATATACCCATCGAAATAATTTCTAATCTTC; DNA, backbone not given here; further chemistry not fully specified; listed as Staphylococcus aureus)
[4]
  Kruskal-Wallis pairwise comparison of kidney burden vs Vancomycin: <0.0001
  Kruskal-Wallis pairwise comparison of kidney burden vs Vehicle: 0.9203

## Tef: fluorescein 5′-labelled oligonucleotide, SEQ ID NO: 52, substitute for the TFD (AGGCGGCCGCGAATTCACTAGTGA; DNA, 5' {Fluorescein}, backbone not given here; listed as Staphylococcus aureus)
MRSA strain, EMRSA-15
  uptake of labelled oligonucleotide into bacteria (fluorescence view): had been internalised

B1: Sig DB-TFD: dumbbell TFD with recognition site for S. aureus alternative sigma protein, SEQ ID NO: 30 and 31 (nucleic acid)
chain 1: CTTGGTTTTTCCAAGGAAGATTAGAAATTATTTCGATGGGTATATAATA
chain 2: CCGTCTTTTTGACGGTATTATATACCCATCGAAATAATTTCTAATCTTC
modifications: DNA, backbone not given here; phosphorylated oligos forming dumbbell with hairpin loops, further chemistry not fully specified
EMRSA-15
  bacterial growth of EMRSA-15, TFD with Gramicidin: no bacterial growth
  growth of EMRSA-15, TFD mixed with Buforin II: prevented growth
  bacterial growth of EMRSA-15, agent alone: grew as well as the untreated control

B2: scrambled version of the DB-TFD: dumbbell TFD with scrambled Sig binding site, SEQ ID NO: 43 and 44 (nucleic acid)
chain 1: CTTGGTTTTTCCAAGTAGAAAGAAGATTTAGGGCGATTTTATAATATAT
chain 2: CCGTCTTTTTGACGGATATATTATAAAATCGCCCTAAATCTTCTTTCTA
modifications: DNA, backbone not given here; dumbbell decoy with hairpin loops
EMRSA-15
  bacterial growth of EMRSA-15, TFD with Gramicidin: grew as well as the untreated control
  growth of EMRSA-15, TFD mixed with Buforin II: no discernable effect on growth
